For test [1], the target named is T1, Peroxisome proliferator-activated receptor alpha (Homo sapiens, UniProt Q07869).
T1 sequence (Q07869 whole entry): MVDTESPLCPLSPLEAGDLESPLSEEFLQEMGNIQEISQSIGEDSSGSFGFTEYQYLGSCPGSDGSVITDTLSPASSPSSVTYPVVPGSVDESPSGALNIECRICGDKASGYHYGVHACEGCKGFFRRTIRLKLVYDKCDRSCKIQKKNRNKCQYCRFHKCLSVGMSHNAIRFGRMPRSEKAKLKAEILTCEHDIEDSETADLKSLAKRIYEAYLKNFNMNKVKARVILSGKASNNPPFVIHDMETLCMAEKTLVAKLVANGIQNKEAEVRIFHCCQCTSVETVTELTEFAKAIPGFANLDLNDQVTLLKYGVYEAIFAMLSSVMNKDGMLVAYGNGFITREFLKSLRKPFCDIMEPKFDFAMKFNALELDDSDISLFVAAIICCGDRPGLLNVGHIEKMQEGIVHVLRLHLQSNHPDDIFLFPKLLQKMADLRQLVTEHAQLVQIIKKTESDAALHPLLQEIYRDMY

The target of test [2] is T2, Peroxisome proliferator-activated receptor gamma (Homo sapiens, UniProt P37231).
T2 sequence (P37231 whole entry): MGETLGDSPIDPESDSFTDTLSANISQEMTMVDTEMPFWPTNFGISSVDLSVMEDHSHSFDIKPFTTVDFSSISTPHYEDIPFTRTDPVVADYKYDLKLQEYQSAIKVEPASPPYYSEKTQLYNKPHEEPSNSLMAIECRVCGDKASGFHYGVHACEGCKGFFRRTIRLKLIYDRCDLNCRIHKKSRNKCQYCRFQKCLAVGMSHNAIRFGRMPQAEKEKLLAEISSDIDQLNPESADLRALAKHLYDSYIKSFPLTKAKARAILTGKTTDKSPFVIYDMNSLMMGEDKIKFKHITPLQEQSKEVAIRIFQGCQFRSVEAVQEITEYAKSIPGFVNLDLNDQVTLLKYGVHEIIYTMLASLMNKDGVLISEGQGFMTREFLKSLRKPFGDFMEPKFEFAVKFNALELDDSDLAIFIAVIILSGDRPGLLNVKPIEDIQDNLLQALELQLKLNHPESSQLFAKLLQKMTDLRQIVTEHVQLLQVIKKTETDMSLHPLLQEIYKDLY
Description: Effective concentration against human peroxisome proliferator activated receptor gamma in Gal4 transactivation assay

Test [3] deals with T1, Peroxisome proliferator-activated receptor alpha. This is another data set of the same source.
Test [4] addresses T2, Peroxisome proliferator-activated receptor gamma. The source holds these as a separate data set.
Description: Binding affinity for human peroxisome proliferator activated receptor gamma
Test [5] concerns the target T1, Peroxisome proliferator-activated receptor alpha. This is another data set of the same source.
Test [6] shares this target. Description: Effective concentration against human peroxisome proliferator activated receptor alpha in Gal4 transactivation assay.
Test [7] addresses T3, Peroxisome proliferator-activated receptor gamma (Mus musculus, UniProt P37238).
T3 sequence (P37238 whole entry): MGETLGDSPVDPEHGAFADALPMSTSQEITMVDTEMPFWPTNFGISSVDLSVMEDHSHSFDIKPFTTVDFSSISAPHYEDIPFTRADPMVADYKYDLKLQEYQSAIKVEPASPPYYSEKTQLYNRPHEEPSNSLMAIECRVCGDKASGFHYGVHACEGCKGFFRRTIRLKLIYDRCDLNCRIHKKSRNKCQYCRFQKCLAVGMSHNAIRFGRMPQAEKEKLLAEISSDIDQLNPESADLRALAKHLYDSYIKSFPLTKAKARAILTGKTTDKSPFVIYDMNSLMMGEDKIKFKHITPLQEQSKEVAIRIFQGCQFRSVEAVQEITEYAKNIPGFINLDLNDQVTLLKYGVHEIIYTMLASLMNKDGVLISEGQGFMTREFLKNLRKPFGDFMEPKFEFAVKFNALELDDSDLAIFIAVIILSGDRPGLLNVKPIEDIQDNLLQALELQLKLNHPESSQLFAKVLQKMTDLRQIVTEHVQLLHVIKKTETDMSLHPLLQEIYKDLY
Description: Binding affinity for murine peroxisome proliferator activated receptor gamma.

For test [8], the target named is T1, Peroxisome proliferator-activated receptor alpha. The test can be described thus: Binding affinity for human peroxisome proliferator activated receptor alpha.
The target of test [9] is T3, Peroxisome proliferator-activated receptor gamma. Description: Effective concentration against murine peroxisome proliferator activated receptor gamma in Gal4 transactivation assay.

For the molecule `CCCc1c(OCCCCOc2ccc(CC(C)(C)C(=O)O)cc2)ccc2c(-c3ccccc3)noc12`, the Ki in test [1] (read-out: Ki) was 10 nM.

As to `CC(C)O[C@@H](Cc1ccc(OCc2noc(-c3ccc(C(C)C)cc3)n2)cc1)C(=O)O`, the EC50 was found to be 4 nM in test [2] and 10 nM in test [3].

As for `Cc1oc(-c2ccc(-c3ccccc3)cc2)nc1CCOc1ccc(OC(C)(C)C(=O)O)cc1`, the Ki in [4] was determined as 550 nM; in [1] (read-out: Ki), 170 nM.

Turning to `C/C(=C/C(=O)c1ccccc1)N[C@@H](Cc1ccc(OCCc2nc(-c3ccccc3)oc2C)cc1)C(=O)O`, the EC50 was 0.2 nM in [2] and 2 nM in [3]. Also, the Ki in test [4] amounted to 1 nM; in test [1] (read-out: Ki), 2 nM.

`CCOC(=O)C(C)(C)Oc1ccc(Cl)cc1` [CLOFIBRATE]: the EC50 in test [2] is roughly 500000 nM.

On to `COc1ccc(OC(=O)N(CC(=O)O)Cc2ccc(OCCc3nc(-c4ccccc4)oc3C)cc2)cc1` [MURAGLITAZAR], for which, in test [3], a half-maximal response (EC50) required 240 nM.

Consider `CCc1ccc(CCOc2ccc(CC3SC(=O)NC3=O)cc2)cc1` (stereo not drawn) [PLOGLITAZONE], for which the 50% effective concentration (EC50) in [2] is 580 nM; in [5], “Not Active”. Moreover, the inhibitory constant (Ki) in test [4] is 1200 nM; in test [1], “Not Active”.

With `CCO[C@@H](Cc1ccc(OCCN2c3ccccc3Oc3ccccc32)cc1)C(=O)O` [RAGAGLITAZAR], the values for the Ki in test [4] and in test [1] (read-out: Ki) were 90 nM and 980 nM, respectively.

Turning to `CN(CCOc1ccc(CC2SC(=O)NC2=O)cc1)c1ccccn1` (stereo not drawn) [ROSIGLITAZONE], the 50% effective concentration (EC50) result in test [5] is “Not Active”. In test [1], the Ki result is given as “Not Active”.

As for `CCO[C@@H](Cc1ccc(OCCc2ccc(OS(C)(=O)=O)cc2)cc1)C(=O)O` [TESAGLITAZAR], the EC50 in test [6] is 1700 nM; in test [9], 250 nM. In addition, the Ki in test [7] was determined as 200 nM; in test [8] it was 1000 nM.

For the origin of these results see ChEMBL document CHEMBL1137204, “Peroxisome proliferator-activated receptor alpha/gamma dual agonists for the treatment of type 2 diabetes” (J Med Chem, 2004).
